Data on 18 molecules can be found in patent US10689399B2, “Substituted 3,4,5,6,8,10,14,14a-octahydro-2h-2,6-methanopyrido[1′,2′:4,5]pyrazino[2,1-b][1,3]oxazocines and methods for treating viral infections” (Gilead Sciences, Inc., priority 2012, dated 2020).

The subject of the test is HIV-IIIb. Nature of the test: Antiviral assay in MT4 cells. The settings on record: Human immunodeficiency virus 1, IIIB, MT4, 120 h, MT4 cells infected with HIV-IIIb, 5 days, CellTiter-Glo; read-out: EC50 nM in MT-4. The format is cell-based. Here is the method: For the antiviral assay utilizing MT4 cells, 0.4 μL of 189X test concentration of 3-fold serially diluted compound in DMSO was added to 40 μL of cell growth medium (RPMI 1640, 10% FBS, 1% penicilline/Streptomycine, 1% L-Glutamine, 1% HEPES) in each well of 384-well assay plates (10 concentrations) in quidruplicate.
1 mL aliquots of 2×10^6 MT4 cells are pre-infected for 1 and 3 hours respectively at 37° C. with 25 μL (MT4) or of either cell growth medium (mock-infected) or a fresh 1:250 dilution of an HIV-IIIb concentrated ABI stock (0.004 m.o.i. for MT4 cells). Infected and uninfected cells are diluted in cell growth medium and 35 μL of 2000 (for MT4) cells is added to each well of the assay plates.
Assay plates were then incubated in a 37° C. incubator. After 5 days of incubation, 25 μL of 2× concentrated CellTiter-Glo™ Reagent (catalog # G7573, Promega Biosciences, Inc., Madison, Wis.) was added to each well of the assay plate. Cell lysis was carried out by incubating at room temperature for 2-3 minutes, and then chemiluminescence was read using the Envision reader (PerkinElmer).
A general note: ATP-based viability assays read luminescence as a measure of living cells.
Consider `O=C(NCc1cccc(F)c1F)c1cn2c(c(O)c1=O)C(=O)N1[C@@H]3CC[C@@H](C3)O[C@H]1C2` [Compound 16, (2S,5R,13aS)—N-(2,3-difluorobenzyl)-8-hydroxy-7,9-dioxo-2,3,4,5,7,9,13,13a-octahydro-2,5-methanopyrido[1′,2′:4,5]pyrazino[2,1-b][1,3]oxazepine-10-carboxamide], for which the EC50 (in general, the concentration needed to bring the measured effect to its halfway point) was 1.5 nM.

Turning to `O=C(NCc1ccc(F)cc1F)c1cn2c(c(O)c1=O)C(=O)N1[C@H]3CC[C@H](C3)O[C@@H]1C2` [Compound 2, (2R,5S,13aR)—N-(2,4-difluorobenzyl)-8-hydroxy-7,9-dioxo-2,3,4,5,7,9,13,13a-octahydro-2,5-methanopyrido[1′,2′:4,5]pyrazino[2,1-b][1,3]oxazepine-10-carboxamide], the EC50 is 2.2 nM.

In the case of `O=C(NCc1cc(F)cc(F)c1)c1cn2c(c(O)c1=O)C(=O)N1[C@@H]3CC[C@@H](C3)O[C@H]1C2` [Compound 24, (2 S,5R,13aS)—N-(3,5-difluorobenzyl)-8-hydroxy-7,9-dioxo-2,3,4,5,7,9,13,13a-octahydro-2,5-methanopyrido[1′,2′: 4,5]pyrazino[2,1-b][1,3]oxazepine-10-carboxamide], the EC50 came out at 6.1 nM.

`O=C(NCc1ccc(F)c(Cl)c1F)c1cn2c(c(O)c1=O)C(=O)N1[C@H]3CC[C@H](C3)[C@H]1C2` [Compound 61, (1R,4S,12aS)—N-(3-chloro-2,4-difluorobenzyl)-7-hydroxy-6,8-dioxo-1,2,3,4,6,8,12,12a-octahydro-1,4-methanodipyrido[1,2-a:1′,2′-d]pyrazine-9-carboxamide]: the EC50 was found to be 1.8 nM.

As to `O=C(NCc1c(F)cc(F)cc1F)c1cn2c(c(O)c1=O)C(=O)N1[C@H]3CC[C@H](C3)O[C@@H]1C2` [Compound 42, (2R,5S,13aR)-8-hydroxy-7,9-dioxo-N-(2,4,6-trifluorobenzyl)-2,3,4,5,7,9,13,13a-octahydro-2,5-methanopyrido[1′,2′:4,5]pyrazino[2,1-b][1,3]oxazepine-10-carboxamide], the 50% effective concentration (EC50) worked out at 2.5 nM.

Regarding `O=C(NC1(c2ccc(F)cc2F)CCCC1)c1cn2c(c(O)c1=O)C(=O)N1C(C2)O[C@H]2CC[C@@H]1C2` (stereo partly drawn) [Compound 33, (2S,5R)—N-(1-(2,4-difluorophenyl)cyclopentyl)-8-hydroxy-7,9-dioxo-2,3,4,5,7,9,13,13a-octahydro-2,5-methanopyrido[1%2′: 4,5]pyrazino[2,1-b][1,3]oxazepine-10-carboxamide], the EC50 worked out at 43.5 nM.

As for `O=C(NCc1ccc(F)cc1F)c1cn2c(c(O)c1=O)C(=O)N1[C@@H]3COC[C@@H](C3)O[C@H]1C2` (racemic) [50/51, N-(2,4-difluorobenzyl)-9-hydroxy-8,10-dioxo-2,3,5,6,8,10,14,14a-octahydro-2,6-methanopyrido[1′,2′:4,5]pyrazino[2,1-b][1,6,3]dioxazocine-11-carboxamide], the EC50 is 1.9 nM.

In the case of `O=C(NCc1cccc(Cl)c1F)c1cn2c(c(O)c1=O)C(=O)N1[C@H]3CC[C@H](C3)[C@@H]1C2` [Compound 90, (1R,4S,12aR)—N-(3-chloro-2-fluorobenzyl)-7-hydroxy-6,8-dioxo-1,2,3,4,6,8,12,12a-octahydro-1,4-methanodipyrido[1,2-a:1′,2′-d]pyrazine-9-carboxamide], the EC50 came out at 5.7 nM.

For the molecule `C[C@H]1C[C@@H]2C[C@H]1N1C(=O)c3c(O)c(=O)c(C(=O)NCc4c(F)cc(F)cc4F)cn3C[C@@H]21` [Compound 99, (1R,3S,4R,12aR)-7-hydroxy-3-methyl-6,8-dioxo-N-(2,4,6-trifluorobenzyl)-1,2,3,4,6,8,12,12a-octahydro-1,4-methanodipyrido[1,2-a:1′,2′-d]pyrazine-9-carboxamide], the concentration for a half-maximal effect (EC50) was found to be 2 nM.

As to `O=C(NCc1c(F)cc(F)cc1F)c1cn2c(c(O)c1=O)C(=O)N1[C@H]3C[C@H](C3)[C@@H]1C2` (single isomer, unassigned) [Compound 97], the EC50 turned out to be 2.1 nM.

As for `C[C@H](NC(=O)c1cn2c(c(O)c1=O)C(=O)N1[C@@H]3CC[C@@H](C3)O[C@H]1C2)c1ccc(F)cc1F` [Compound 13, (2S,5R,13aS)—N—((S)-1-(2,4-difluorophenyl)ethyl)-8-hydroxy-7,9-dioxo-2,3,4,5,7,9,13,13a-octahydro-2,5-methanopyrido[1%2′: 4,5]pyrazino[2,1-b][1,3]oxazepine-10-carboxamide], the EC50 turned out to be 46 nM.

Take `O=C(NCc1ccc(F)cc1Cl)c1cn2c(c(O)c1=O)C(=O)N1[C@H]3CC[C@H](C3)[C@@H]1C2` [Compound 68, (1R,4S,12aR)—N-(2-chloro-4-fluorobenzyl)-7-hydroxy-6,8-dioxo-1,2,3,4,6,8,12,12a-octahydro-1,4-methanodipyrido[1,2-a:1′,2′-d]pyrazine-9-carboxamide]: the EC50 turned out to be 2.7 nM.

As to `O=C(N[C@@H](c1ccc(F)cc1F)C(F)(F)F)c1cn2c(c(O)c1=O)C(=O)N1C(C2)O[C@@H]2CC[C@H]1C2` (stereo partly drawn) [Compound 54, (2R,5S)—N—((S)-1-(2,4-difluorophenyl)-2,2,2-trifluoroethyl)-8-hydroxy-7,9-dioxo-2,3,4,5,7,9,13,13a-octahydro-2,5-methanopyrido[1′,2′:4,5]pyrazino[2,1-b][1,3]oxazepine-10-carboxamide], the EC50 was 15.6 nM.

Turning to `O=C(NCc1ccc(F)cc1F)c1cn2c(c(O)c1=O)C(=O)N1C(C2)[N@]2CC[C@H]1C2` (stereo partly drawn) [Compound 6, (1R,4S)—N-(2,4-difluorobenzyl)-7-hydroxy-6,8-dioxo-3,4,6,8,12,12a-hexahydro-2H-1,4-methanopyrido[1′,2′:4,5]pyrazino[1,2-a]pyrimidine-9-carboxamide], the EC50 is 5.3 nM.

As for `O=C(NCc1c(F)cc(F)cc1F)c1cn2c(c(O)c1=O)C(=O)N1[C@@H]3CC[C@@H](C3)O[C@H]1C2` [Compound 45, (13aS)-8-hydroxy-7,9-dioxo-N-(2,4,6-trifluorobenzyl)-2,3,4,5,7,9,13,13a-octahydro-2,5-methanopyrido[1′,2′:4,5]pyrazino[2,1-b][1,3]oxazepine-10-carboxamide], the EC50 came out at 2.4 nM.

In the case of `C[C@@H](NC(=O)c1cn2c(c(O)c1=O)C(=O)N1[C@@H]3CC[C@H](C3)O[C@@H]1C2)c1c(F)cc(F)cc1F` [Compound 78, (2R,13aR)-8-hydroxy-7,9-dioxo-N—((R)-1-(2,4,6-trifluorophenyl)ethyl)-2,3,4,5,7,9,13,13a-octahydro-2,5-methanopyrido[1%2′: 4,5]pyrazino[2,1-b][1,3]oxazepine-10-carboxamide], the EC50 worked out at 5.6 nM.

For `C[C@@H](NC(=O)c1cn2c(c(O)c1=O)C(=O)N1[C@H]3CC[C@H](C3)O[C@@H]1C2)c1ccc(F)cc1` [Compound 10, (2R,5S,13aR)—N—((R)-1-(4-fluorophenyl)ethyl)-8-hydroxy-7,9-dioxo-2,3,4,5,7,9,13,13a-octahydro-2,5-methanopyrido[1%2′: 4,5]pyrazino[2,1-b][1,3]oxazepine-10-carboxamide], the EC50 is 6.1 nM.

In the case of `O=C(NCc1cc(Cl)c(F)cc1F)c1cn2c(c(O)c1=O)C(=O)N1[C@H]3CC[C@H](C3)O[C@@H]1C2` [Compound 65, (2R,5 S,13aR)—N-(5-chloro-2,4-difluorobenzyl)-8-hydroxy-7,9-dioxo-2,3,4,5,7,9,13,13a-octahydro-2,5-methanopyrido[1′,2′: 4,5]pyrazino[2,1-b][1,3]oxazepine-10-carboxamide], the EC50 is 2.4 nM.
